Laboratory results from ChEMBL document CHEMBL1201862, “PubChem BioAssay data set” (2004).
Calls of active or inactive are those of the source.

Assays:
[1] = biological target: T1, DNA repair protein RAD52 homolog (Homo sapiens, UniProt P43351); format: functional, biochemical
T1 sequence (P43351 whole entry): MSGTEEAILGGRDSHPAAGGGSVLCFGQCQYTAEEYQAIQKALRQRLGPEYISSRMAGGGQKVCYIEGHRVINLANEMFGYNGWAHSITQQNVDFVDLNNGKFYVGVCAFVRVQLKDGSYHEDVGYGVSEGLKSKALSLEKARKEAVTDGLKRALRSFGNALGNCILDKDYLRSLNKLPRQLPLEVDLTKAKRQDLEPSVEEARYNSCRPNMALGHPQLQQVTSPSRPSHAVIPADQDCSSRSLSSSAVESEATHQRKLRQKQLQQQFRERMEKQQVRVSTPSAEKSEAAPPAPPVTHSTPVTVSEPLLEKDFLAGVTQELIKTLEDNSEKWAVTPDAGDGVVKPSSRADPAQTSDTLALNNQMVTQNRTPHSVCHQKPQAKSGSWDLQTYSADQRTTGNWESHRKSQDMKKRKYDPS

[2] = biological target: T2, Apoptotic protease-activating factor 1 (Homo sapiens, UniProt O14727); format: functional
T2 sequence (O14727 whole entry): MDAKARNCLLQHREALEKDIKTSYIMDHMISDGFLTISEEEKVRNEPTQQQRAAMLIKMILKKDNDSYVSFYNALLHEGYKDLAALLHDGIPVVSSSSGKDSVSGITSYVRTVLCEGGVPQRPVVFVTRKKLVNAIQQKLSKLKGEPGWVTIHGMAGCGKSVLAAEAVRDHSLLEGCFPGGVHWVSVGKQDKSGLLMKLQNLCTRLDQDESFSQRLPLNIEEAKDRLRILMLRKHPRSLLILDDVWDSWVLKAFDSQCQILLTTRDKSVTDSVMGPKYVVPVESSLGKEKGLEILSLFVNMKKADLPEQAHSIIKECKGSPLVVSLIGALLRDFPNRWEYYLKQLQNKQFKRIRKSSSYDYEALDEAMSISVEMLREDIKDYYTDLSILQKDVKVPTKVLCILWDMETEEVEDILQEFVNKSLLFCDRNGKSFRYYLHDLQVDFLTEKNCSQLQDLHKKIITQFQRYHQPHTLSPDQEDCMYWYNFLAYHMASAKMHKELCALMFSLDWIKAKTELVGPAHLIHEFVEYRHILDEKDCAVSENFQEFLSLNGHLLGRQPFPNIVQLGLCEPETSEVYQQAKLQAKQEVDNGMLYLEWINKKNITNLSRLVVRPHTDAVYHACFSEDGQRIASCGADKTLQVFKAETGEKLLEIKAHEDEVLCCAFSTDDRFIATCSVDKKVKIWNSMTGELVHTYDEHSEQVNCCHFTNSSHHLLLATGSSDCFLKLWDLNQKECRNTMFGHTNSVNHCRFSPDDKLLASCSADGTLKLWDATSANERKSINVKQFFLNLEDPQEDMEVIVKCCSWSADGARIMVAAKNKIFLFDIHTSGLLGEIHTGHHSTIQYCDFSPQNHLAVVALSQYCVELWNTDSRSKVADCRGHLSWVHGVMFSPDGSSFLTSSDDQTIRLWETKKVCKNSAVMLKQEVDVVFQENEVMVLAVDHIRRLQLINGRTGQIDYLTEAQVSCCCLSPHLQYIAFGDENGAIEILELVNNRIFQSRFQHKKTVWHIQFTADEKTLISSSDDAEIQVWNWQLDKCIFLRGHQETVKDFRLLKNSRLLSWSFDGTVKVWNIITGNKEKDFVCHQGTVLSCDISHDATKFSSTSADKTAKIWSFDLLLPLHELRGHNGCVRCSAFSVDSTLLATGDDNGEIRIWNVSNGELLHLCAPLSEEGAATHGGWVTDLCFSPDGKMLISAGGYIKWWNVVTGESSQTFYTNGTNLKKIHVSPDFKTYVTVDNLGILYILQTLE

[3] = test system: Streptococcus sp. 'group A'; test: Streptococcus pyogenes SK(-)GAS viability under kanamycin – luminescence, BacTiterGlo, confirmation, counter-screen for streptokinase expression inhibitor project, dose response (AID 1900); format: functional, organism-based
[4] = biological target: Nucleotide-binding oligomerization domain-containing protein 2 (Homo sapiens, UniProt Q9HC29); test: inhibition of NOD2-driven NF-kB reporter – cell-based, luminescence, uHTS, HEK293 (AID 1566); format: functional
[5] = biological target: T3, Fatty acid synthase (Homo sapiens, UniProt P49327); test: inhibition of human FAS-TE enzyme activity – biochemical, endpoint fluorescence intensity, uHTS hits, dose response (AID 624327); format: functional;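 further: fluorescence from hydrolysis of an O-methyl fluorescein acyl ester substrate by the enzyme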
[6] = viability of HCT116 lacking mutant beta-catenin – cell-based, human colon tumor, dose response (AID 1045); format: functional;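 further: HCT116 colon tumor cells with beta catenin knocked out; cells exposed to compound for 60 hours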
[7] = biological target: T3, Fatty acid synthase; test: inhibition of human FAS-TE enzyme activity – biochemical, kinetic fluorescence intensity, dose response (AID 624326); format: functional;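 further: rate of fluorescence rise from hydrolysis of a fluorogenic O-methyl fluorescein ester substrate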
[8] = biological target: T4, Heat shock factor protein 1 (Mus musculus, UniProt P38532); test: decrease of HSF1-responsive luciferase luminescence – cell-based, NIH3T3, dose retest, confirmation (AID 2382); format: functional;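 further: NIH3T3 fibroblasts with HSF1-driven luciferase reporter stressed by proteasome inhibitor MG132; luminescence from HSF1-driven luciferase expression after 8 hours of MG132 stress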
T4 sequence (P38532 whole entry): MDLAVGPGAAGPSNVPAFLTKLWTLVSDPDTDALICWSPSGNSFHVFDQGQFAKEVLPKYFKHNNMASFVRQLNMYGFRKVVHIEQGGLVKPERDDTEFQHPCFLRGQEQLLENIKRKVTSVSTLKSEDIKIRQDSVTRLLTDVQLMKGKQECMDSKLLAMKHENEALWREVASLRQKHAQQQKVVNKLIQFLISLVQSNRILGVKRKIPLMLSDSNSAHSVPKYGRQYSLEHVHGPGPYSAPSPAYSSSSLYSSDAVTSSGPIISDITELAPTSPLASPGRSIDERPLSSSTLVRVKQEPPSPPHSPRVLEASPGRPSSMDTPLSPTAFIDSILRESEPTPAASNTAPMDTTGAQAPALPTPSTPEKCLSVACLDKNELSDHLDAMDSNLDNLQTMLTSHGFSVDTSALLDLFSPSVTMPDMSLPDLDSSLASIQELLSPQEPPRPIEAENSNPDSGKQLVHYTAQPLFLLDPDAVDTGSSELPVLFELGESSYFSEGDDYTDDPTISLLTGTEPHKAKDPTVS

[9] = biological target: Neurotensin receptor type 1 (Homo sapiens, UniProt P30989); format: functional;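 further: Image-based confirmatory dose-response assay measuring agonist activity at NTR1; NTR1-expressing U2OS osteosarcoma cells imaged for beta-arrestin GFP spot formation; agonist potency where compounds increase beta-arrestin recruitment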
[10] = test system: HEK293; test: cells; format: functional, cell-based; settings: Homo sapiens
[11] = test system: HEK293; test: inhibition of NOD1-driven NF-kB reporter – cell-based, luminescence, uHTS, primary screen (AID 1578); format: functional; settings: Homo sapiens
[12] = viability of PTEN-deleted HCT116 cells – cell-based, HCT116 PTEN knockout, dose response (AID 1047); format: functional;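 further: HCT116 colon tumor cells with PTEN knocked out; cells exposed to compound for 60 hours before readout; potency for loss of cell viability measured by luminescence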
[13] = biological target: Melanocortin receptor 4 (Homo sapiens, UniProt P32245); test: inhibitors of MC4R cAMP signaling – cell-based, TR-FRET, biased antagonists, dose response (AID 602298); format: functional;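 further: antagonist potency against agonist-stimulated cAMP production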
[14] = test system: INS1; test: INS-1E survival protection against cytokine death – cell-based, luminescence, retest, dose response (AID 449756); format: functional; settings: Rattus norvegicus;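 further: cell death triggered by IL-1 beta plus TNF-alpha plus IFN-gamma mixture; protective hits raise ATP signal compared with cytokine alone wells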
[15] = cAMP pathway inhibition in counterscreen cell line – TR-FRET cAMP detection, counter-screen for MC4R biased antagonist project, dose response (AID 602305); format: functional, cell-based;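 further: U2OS cells stimulated with forskolin near its EC80 as the cAMP inducer; potency is for inhibition of forskolin-stimulated cAMP signaling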

T3 sequence (P49327 whole entry): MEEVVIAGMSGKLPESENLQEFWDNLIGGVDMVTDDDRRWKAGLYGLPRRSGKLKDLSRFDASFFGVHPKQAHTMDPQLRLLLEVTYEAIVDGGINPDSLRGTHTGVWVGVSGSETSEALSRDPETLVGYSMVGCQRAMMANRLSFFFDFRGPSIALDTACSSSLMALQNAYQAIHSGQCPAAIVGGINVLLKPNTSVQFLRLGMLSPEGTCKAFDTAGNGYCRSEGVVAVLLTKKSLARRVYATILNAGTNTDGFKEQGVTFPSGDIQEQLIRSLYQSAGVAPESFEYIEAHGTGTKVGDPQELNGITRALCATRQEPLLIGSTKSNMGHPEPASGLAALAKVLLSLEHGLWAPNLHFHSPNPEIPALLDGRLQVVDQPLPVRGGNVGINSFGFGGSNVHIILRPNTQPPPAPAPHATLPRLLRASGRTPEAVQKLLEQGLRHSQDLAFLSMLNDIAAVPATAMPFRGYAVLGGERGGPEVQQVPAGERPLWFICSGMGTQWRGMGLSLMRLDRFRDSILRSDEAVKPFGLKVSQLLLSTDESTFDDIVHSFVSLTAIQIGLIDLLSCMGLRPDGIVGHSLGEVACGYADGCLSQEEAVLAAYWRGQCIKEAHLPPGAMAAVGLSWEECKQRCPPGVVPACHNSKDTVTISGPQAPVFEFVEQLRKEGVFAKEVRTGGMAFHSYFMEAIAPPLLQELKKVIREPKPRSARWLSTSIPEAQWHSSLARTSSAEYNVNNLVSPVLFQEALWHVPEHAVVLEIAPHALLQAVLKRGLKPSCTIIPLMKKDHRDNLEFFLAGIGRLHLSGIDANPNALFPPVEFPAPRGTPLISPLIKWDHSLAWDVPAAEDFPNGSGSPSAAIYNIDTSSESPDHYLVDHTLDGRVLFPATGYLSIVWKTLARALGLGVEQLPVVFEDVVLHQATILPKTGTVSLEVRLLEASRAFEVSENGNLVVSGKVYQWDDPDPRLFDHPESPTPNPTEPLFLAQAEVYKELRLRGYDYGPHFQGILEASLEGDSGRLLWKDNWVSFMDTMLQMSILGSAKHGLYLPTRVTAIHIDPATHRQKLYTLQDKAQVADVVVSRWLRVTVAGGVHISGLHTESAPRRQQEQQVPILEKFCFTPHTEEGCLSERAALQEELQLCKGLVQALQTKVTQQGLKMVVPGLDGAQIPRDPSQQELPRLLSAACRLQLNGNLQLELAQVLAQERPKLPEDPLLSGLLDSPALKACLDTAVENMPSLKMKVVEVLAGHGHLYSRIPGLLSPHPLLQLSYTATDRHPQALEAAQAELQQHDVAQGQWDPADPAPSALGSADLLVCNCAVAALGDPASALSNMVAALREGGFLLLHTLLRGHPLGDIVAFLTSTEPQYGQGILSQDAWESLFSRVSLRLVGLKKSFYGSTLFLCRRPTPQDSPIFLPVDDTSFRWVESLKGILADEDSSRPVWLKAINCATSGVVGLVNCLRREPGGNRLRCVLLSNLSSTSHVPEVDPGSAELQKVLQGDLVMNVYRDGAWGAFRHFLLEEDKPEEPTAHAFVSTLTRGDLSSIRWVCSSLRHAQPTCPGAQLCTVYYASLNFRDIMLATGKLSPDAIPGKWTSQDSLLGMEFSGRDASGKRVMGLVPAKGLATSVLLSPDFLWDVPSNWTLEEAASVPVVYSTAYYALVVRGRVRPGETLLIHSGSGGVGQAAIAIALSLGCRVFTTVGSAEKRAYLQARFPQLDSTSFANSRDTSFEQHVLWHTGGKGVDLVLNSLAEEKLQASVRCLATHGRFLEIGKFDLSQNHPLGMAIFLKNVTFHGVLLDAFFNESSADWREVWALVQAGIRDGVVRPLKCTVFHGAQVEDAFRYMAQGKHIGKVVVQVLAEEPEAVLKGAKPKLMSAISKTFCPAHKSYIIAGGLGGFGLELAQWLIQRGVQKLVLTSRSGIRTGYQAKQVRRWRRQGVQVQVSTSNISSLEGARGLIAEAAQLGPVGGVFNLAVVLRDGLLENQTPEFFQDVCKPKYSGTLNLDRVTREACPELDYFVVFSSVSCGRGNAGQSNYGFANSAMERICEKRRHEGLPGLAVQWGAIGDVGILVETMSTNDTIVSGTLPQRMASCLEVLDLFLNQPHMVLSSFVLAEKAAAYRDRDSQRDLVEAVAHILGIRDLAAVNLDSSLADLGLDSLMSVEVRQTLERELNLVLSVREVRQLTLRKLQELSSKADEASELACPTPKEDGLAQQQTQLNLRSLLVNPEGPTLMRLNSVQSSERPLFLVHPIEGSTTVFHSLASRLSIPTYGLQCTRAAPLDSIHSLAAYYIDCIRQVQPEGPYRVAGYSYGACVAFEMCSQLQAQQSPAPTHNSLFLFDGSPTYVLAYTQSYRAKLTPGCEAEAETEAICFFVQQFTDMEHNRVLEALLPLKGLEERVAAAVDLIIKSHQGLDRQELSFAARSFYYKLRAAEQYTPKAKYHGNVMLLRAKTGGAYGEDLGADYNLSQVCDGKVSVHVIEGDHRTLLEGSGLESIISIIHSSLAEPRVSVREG
Nucleotide-binding oligomerization domain-containing protein 2, sequence (Q9HC29 whole entry, the tested form may be a part): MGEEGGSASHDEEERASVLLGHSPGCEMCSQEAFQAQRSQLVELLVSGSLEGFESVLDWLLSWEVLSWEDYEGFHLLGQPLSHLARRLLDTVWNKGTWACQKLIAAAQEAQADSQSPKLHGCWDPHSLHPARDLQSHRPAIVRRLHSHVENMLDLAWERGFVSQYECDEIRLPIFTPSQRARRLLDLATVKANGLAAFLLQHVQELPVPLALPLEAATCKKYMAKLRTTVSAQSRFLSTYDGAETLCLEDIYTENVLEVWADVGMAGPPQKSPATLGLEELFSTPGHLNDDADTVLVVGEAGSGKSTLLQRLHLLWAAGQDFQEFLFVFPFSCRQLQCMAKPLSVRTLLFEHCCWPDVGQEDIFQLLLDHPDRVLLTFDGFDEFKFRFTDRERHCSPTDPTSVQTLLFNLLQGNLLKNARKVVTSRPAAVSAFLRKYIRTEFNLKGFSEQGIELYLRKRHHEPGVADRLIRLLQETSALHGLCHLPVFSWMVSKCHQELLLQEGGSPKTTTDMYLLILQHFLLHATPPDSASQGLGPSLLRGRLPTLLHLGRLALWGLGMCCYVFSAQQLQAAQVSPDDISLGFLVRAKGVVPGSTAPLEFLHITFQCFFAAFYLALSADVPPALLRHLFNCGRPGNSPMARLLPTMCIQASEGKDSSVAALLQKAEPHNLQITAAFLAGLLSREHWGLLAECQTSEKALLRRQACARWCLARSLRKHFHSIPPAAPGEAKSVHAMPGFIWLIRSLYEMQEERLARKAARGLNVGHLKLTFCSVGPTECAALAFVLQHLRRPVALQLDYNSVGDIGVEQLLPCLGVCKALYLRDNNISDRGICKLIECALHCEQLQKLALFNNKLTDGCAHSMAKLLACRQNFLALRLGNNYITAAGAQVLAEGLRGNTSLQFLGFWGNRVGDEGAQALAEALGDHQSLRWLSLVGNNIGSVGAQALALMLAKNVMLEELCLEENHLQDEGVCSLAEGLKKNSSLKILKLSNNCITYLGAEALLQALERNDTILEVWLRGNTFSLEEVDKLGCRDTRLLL
Neurotensin receptor type 1, sequence (P30989 whole entry): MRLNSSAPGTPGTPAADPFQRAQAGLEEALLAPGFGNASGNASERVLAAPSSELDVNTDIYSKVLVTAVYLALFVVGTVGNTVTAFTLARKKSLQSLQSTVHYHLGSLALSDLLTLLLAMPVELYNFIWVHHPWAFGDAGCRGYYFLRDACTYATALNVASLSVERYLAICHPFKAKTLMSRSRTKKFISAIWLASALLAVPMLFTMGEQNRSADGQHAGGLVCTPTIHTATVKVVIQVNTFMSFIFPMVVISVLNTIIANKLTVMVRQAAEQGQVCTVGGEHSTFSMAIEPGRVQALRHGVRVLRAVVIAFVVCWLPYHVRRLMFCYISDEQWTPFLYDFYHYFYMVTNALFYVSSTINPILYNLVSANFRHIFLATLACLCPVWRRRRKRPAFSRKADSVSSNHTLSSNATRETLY
Melanocortin receptor 4, sequence (P32245 whole entry): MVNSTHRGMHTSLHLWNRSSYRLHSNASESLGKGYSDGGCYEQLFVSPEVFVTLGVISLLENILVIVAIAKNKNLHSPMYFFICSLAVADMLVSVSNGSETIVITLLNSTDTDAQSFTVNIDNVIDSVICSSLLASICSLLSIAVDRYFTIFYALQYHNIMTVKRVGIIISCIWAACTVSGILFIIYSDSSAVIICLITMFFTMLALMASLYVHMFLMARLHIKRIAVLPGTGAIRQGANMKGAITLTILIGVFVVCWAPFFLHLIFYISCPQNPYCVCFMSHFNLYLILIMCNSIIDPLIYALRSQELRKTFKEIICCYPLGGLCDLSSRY

Structure (SMILES)	AC50 [1]	IC50 [2]	EC50 [3]	EC50 [4]	IC50 [5]	EC50 [6]	IC50 [7]	EC50 [8]	EC50 [9]	IC50 [10]	EC50 [11]	EC50 [12]	IC50 [13]	AC50 [14]	IC50 [15]
COc1cc(/C=C/c2cc[n+](C)cc2)ccc1OCC(=O)Nc1ccc(Cl)c(Cl)c1	8.27 µM (active)	22.6 µM (active)	12.7 µM (active)												
O=C(NCCc1ccccc1)C(c1cccs1)N(C(=O)CCl)c1ccc(Cl)cc1 (configuration not stated)				> 20 µM (inactive)	7.91 µM (active)	2.62 µM (active)	10.3 µM (active)	1.28 µM (active)	2.5 µM (active)	11.5 µM (active)	5.3 µM (active)	3.7 µM (active)			
CCCCCCCCCC[N+](C)(C)CC/C=C1/c2ccccc2Sc2ccc(Cl)cc21		10.6 µM (active)	1.75 µM (active)										31.2 µM (inactive)	5.67 µM (active)	22.6 µM (inactive)
